Measurements reported in patent US6727288B2, “Method for treating bone fracture” (Juneng Industry Co., Ltd., priority 2001, dated 2004).
Marks after values point to notes of the source that are not given here.

Columns and labels:
[1] = test system: ALP activity of osteoblast (OB2); assay: ALP activity of OB2 cell lysates, para-nitrobenzene phosphate method; format: cell-based, SD rat; conditions: 10^−3 mol/L; for ALP activity of osteoblast: n = 4
Procedure: (§1) 1) Sampling: after a newborn (within 24 hours) SD rat was disinfected, the calvaria were excised under sterilization conditions. The calvaria were predigested by 0.25% trypsin for 10-15 minutes firstly, then oscillated and digested by 0.1% collagenase II at 37° C. for 60 minutes. The cells were collected by centrifugation at 1000 rpm.
(§2) 2) Cell culture: The isolated cells were inoculated into culture flask at a concentration of 1×10^4/cm^2, wherein the culture solution is 10% of NCS-MEM. The cells were cultured in an incubator with 5% CO2 at 37° C., then passaged until half confluence. The second generation of secondary cells (OB2) were tested for pharmacodynamics.
(§3) 3) Medicines: Each test medicine was formulated at a concentration of 0.1 mol/L, and sterilized by high pressure for later use.
(§4) 2.24 g of calcium gluconate was dissolved in 50 ml of deionized water at room temperature. The control group was deionized water.
OB2 was inoculated into 24 well COSTOR culture plate at a density of 2×10^4 per well. 24 hours later, the above culture solution was replaced by medium containing medicines. Then the culture solution was changed every 48 hours until confluence of cells was reached. ALP activity of cell lysates was measured by para-nitrobenzene phosphate method. Content of protein in cell lysates was measured by Coomassie brilliant blue method.

[2] = test system: α-COLI mRNA in osteoblast (OB2); assay: mRNA expression of α-COLI in osteoblasts by quantitative RT-PCR; format: cell-based, SD rat; conditions: 10^−3 mol/L; for level of α-COLI mRNA compared with control group: quantitative RT-PCR, in words
Procedure: 1. Cell Culture: The culture method of primary osteoblast was the same as that of the previous test. OB2 was inoculated at density of 1×10^4 cells/cm^2. […] Culture medium was changed every 48 hours and the medicines were added. Total RNA of the cells was extracted one week later.
2. Extraction of RNA: The cells were digested with 0.25% trypsin, and were centrifuged at 1000 rpm for 5 min to collect cell pellets. Total RNA was extracted with TRIzol reagent (Gibco Co.) method.
3. Reverse transcriptase polymerase chain reaction (RT-PCR): Access RT-PCR System kit (Promega) was used in the test, following the directions of the kit. The RT-PCR of the reaction mixture was performed in PCR analyzer (Bio-Rad Inc.) at 48° C. for 45 min. Inactivate enzyme at 94° C. for 2 min, then 30 cycles of PCR reaction: […] at 94° C. for degeneration, 1 min at 54° C. for annealing, 2 min at 72° C. for extension, and after the last cycle, 7 min at 72° C. for another extension. 9 μl PCR products were analyzed in 1.5% agarose gel electrophoresis. Then the bands were analyzed by image analysis system (Image Master VDS). Optical density value was calibrated by internal reference-Actin, and the calibration values were analyzed statistically.
4. Medicines: Each test medicine was formulated at the concentration of 0.1 mol/L, and sterilized by high pressure for later use. […] Calcium gluconate, Shanghai Huanghai Pharmaceutical Factory, 2.24 g was dissolved in 50 ml deionized water.

osteoblasts (OB2) [3] = assay: Osteoblast (OB2) proliferation, MTT method; format: cell-based, SD rat; conditions: for A570 (X ± SD): 72 hours, MTT, n = 4
Procedure: as §1, §2, §3, §4
OB2 were inoculated into 24 well COSTOR culture plate at a density of 6×10^3 per well. 24 hours later, the above culture solution was replaced by culture solution containing varying concentrations of medicines ranging from 10^−9 to 10^−3 mol/L. 72 hours after adding medicines, the cells were tested through Labsystems Multiskan MS (Finland) )ELISA analyzer by MTT method. OD value at 570 nm was used to reflect cell proliferation.

osteoblasts (OB2) [4] = assay: Mineralization function of OB2, alizarin red nodule count; format: cell-based, SD rat; conditions: for Number of mineralization nodules: 14 days, alizarin red, n = 4
Procedure: as §1, §2, §3, §4
OB2 was inoculated into 6 well COSTOR culture plate at a density of 5×10^4 per well. 24 hours later, the above culture solution was replaced by culture solution containing medicines. Then the solution was changed every 48 hours. 14 days later, the cells were fixed and stained with alizarin red.

emasculated rat = conditions: in words

Compound: calcium L-threonate
- ALP activity of OB2 versus control group ([1]; in words): higher than that of control group
- ALP activity of osteoblast ([1]; Experiment 1): 0.156 ± 0.002 U/mg of protein
- ALP activity of osteoblast ([1]; Experiment 2): 0.208 ± 0.003 U/mg of protein
- ALP activity of osteoblast ([1]; Experiment 3): 0.164 ± 0.026 U/mg of protein
- level of α-COLI mRNA compared with control group [2]: increased significantly
- effect on proliferation of osteoblast (osteoblasts (OB2) [3]; 10^−9-10^−3 mol/L, in words): promoting proliferation of osteoblast
- A570 (X ± SD) (osteoblasts (OB2) [3]; test I, 10^−3 mol/L): 0.458 ± 0.019
- A570 (X ± SD) (osteoblasts (OB2) [3]; test I, 10^−5 mol/L): 0.405 ± 0.085
- A570 (X ± SD) (osteoblasts (OB2) [3]; test I, 10^−7 mol/L): 0.401 ± 0.082
- A570 (X ± SD) (osteoblasts (OB2) [3]; test I, 10^−9 mol/L): 0.387 ± 0.087
- A570 (X ± SD) (osteoblasts (OB2) [3]; test II, 10^−3 mol/L): 0.486 ± 0.010
- A570 (X ± SD) (osteoblasts (OB2) [3]; test II, 10^−5 mol/L): 0.449 ± 0.041
- A570 (X ± SD) (osteoblasts (OB2) [3]; test II, 10^−7 mol/L): 0.371 ± 0.047
- A570 (X ± SD) (osteoblasts (OB2) [3]; test II, 10^−9 mol/L): 0.418 ± 0.047
- A570 (X ± SD) (osteoblasts (OB2) [3]; test III, 10^−3 mol/L): 0.386 ± 0.024
- A570 (X ± SD) (osteoblasts (OB2) [3]; test III, 10^−5 mol/L): 0.327 ± 0.034
- A570 (X ± SD) (osteoblasts (OB2) [3]; test III, 10^−7 mol/L): 0.338 ± 0.048
- A570 (X ± SD) (osteoblasts (OB2) [3]; test III, 10^−9 mol/L): 0.316 ± 0.073
- Number of mineralization nodules (osteoblasts (OB2) [4]): 12.0 ± 3.742
- number of mineralization nodules versus other groups (osteoblasts (OB2) [4]; within two weeks, in words): the largest
- biomechanical parameters (emasculated rat): significantly increase
- bone density (emasculated rat): significantly increase
- content of bone calcium (emasculated rat): significantly increase

Compound: Calcium gluconate
- ALP activity of osteoblast ([1]; Experiment 1): 0.115 ± 0.009 U/mg of protein
- ALP activity of osteoblast ([1]; Experiment 2): 0.140 ± 0.016 U/mg of protein
- ALP activity of osteoblast ([1]; Experiment 3): 0.107 ± 0.025 U/mg of protein
- Relative expression amount of α-COLI ([2]; one week, calibrated by β-Actin, X ± SD, n = 3): 1.2524 ± 0.377
- level of α-COLI mRNA compared with control group [2]: no significant difference
- A570 (X ± SD) (osteoblasts (OB2) [3]; test I, 10^−3 mol/L): 0.381 ± 0.052
- A570 (X ± SD) (osteoblasts (OB2) [3]; test I, 10^−5 mol/L): 0.351 ± 0.039
- A570 (X ± SD) (osteoblasts (OB2) [3]; test I, 10^−7 mol/L): 0.267 ± 0.009*^&
- A570 (X ± SD) (osteoblasts (OB2) [3]; test I, 10^−9 mol/L): 0.265 ± 0.025
- A570 (X ± SD) (osteoblasts (OB2) [3]; test II, 10^−3 mol/L): 0.359 ± 0.072**^&
- A570 (X ± SD) (osteoblasts (OB2) [3]; test II, 10^−5 mol/L): 0.301 ± 0.051
- A570 (X ± SD) (osteoblasts (OB2) [3]; test II, 10^−7 mol/L): 0.268 ± 0.019*^&
- A570 (X ± SD) (osteoblasts (OB2) [3]; test II, 10^−9 mol/L): 0.248 ± 0.017^&
- A570 (X ± SD) (osteoblasts (OB2) [3]; test III, 10^−3 mol/L): 0.229 ± 0.021
- A570 (X ± SD) (osteoblasts (OB2) [3]; test III, 10^−5 mol/L): 0.242 ± 0.012
- A570 (X ± SD) (osteoblasts (OB2) [3]; test III, 10^−7 mol/L): 0.233 ± 0.021^$
- A570 (X ± SD) (osteoblasts (OB2) [3]; test III, 10^−9 mol/L): 0.229 ± 0.017
- Number of mineralization nodules (osteoblasts (OB2) [4]): 6.2 ± 2.588^&

Compound: [Ca+2].[Cl-].[Cl-] [Calcium chloride]
- ALP activity of osteoblast ([1]; Experiment 1): 0.119 ± 0.039 U/mg of protein
- ALP activity of osteoblast ([1]; Experiment 2): 0.122 ± 0.08 U/mg of protein
- ALP activity of osteoblast ([1]; Experiment 3): 0.102 ± 0.008 U/mg of protein
- A570 (X ± SD) (osteoblasts (OB2) [3]; test I, 10^−3 mol/L): 0.325 ± 0.052
- A570 (X ± SD) (osteoblasts (OB2) [3]; test I, 10^−5 mol/L): 0.277 ± 0.037
- A570 (X ± SD) (osteoblasts (OB2) [3]; test I, 10^−7 mol/L): 0.239 ± 0.005^&
- A570 (X ± SD) (osteoblasts (OB2) [3]; test I, 10^−9 mol/L): 0.237 ± 0.005^&
- A570 (X ± SD) (osteoblasts (OB2) [3]; test II, 10^−3 mol/L): 0.423 ± 0.028***^&
- A570 (X ± SD) (osteoblasts (OB2) [3]; test II, 10^−5 mol/L): 0.324 ± 0.047^&
- A570 (X ± SD) (osteoblasts (OB2) [3]; test II, 10^−7 mol/L): 0.268 ± 0.022^&
- A570 (X ± SD) (osteoblasts (OB2) [3]; test II, 10^−9 mol/L): 0.292 ± 0.023
- A570 (X ± SD) (osteoblasts (OB2) [3]; test III, 10^−3 mol/L): 0.281 ± 0.014
- A570 (X ± SD) (osteoblasts (OB2) [3]; test III, 10^−5 mol/L): 0.268 ± 0.025^&
- A570 (X ± SD) (osteoblasts (OB2) [3]; test III, 10^−7 mol/L): 0.229 ± 0.09
- A570 (X ± SD) (osteoblasts (OB2) [3]; test III, 10^−9 mol/L): 0.267 ± 0.016
- Number of mineralization nodules (osteoblasts (OB2) [4]): 6.4 ± 1.673^&
